In US10889555B2, “Sulfonamide compound or salt thereof” (Taiho Pharmaceutical Co., Ltd., priority 2016, dated 2021) one finds IC50 data, which are given here for 9 compounds.

The subject of assay [1] is various cancer cell lines as described in Table 21. In words: Cell proliferation inhibitory effect on human cancer-derived cancer cell lines (method of Test Example 2). Format: cell-based. The method, then:
Human derived breast cancer cell line HCC 1806 cells were daily passaged at a cell density not exceeding 80% in ATCC recommended Roswell Park Memorial Institute medium (RPMI-1640) containing 10% fetal bovine serum (FBS). In order to start the test of cell proliferation inhibitory activity, HCC 1806 cells were suspended in the above medium, after seeing at 180 μL in each well of a 96-well flat bottom plate so that the number of cells per well was 2,000, the cells were cultured at 37° C. for 1 day in an incubator containing 5% carbon dioxide gas. On the next day, the test compound was dissolved in DMSO, and 20 μL of a drug additive solution diluted serially with distilled water to 10 times of the final concentration was added to each well of the culture plate of the cells, and the cells were cultured at 37° C. for 72 hours in an incubator containing 5% carbon dioxide gas. After culturing for 72 hours, 20 μL of glutaraldehyde was added to each well and allowed to stand for 30 minutes, then the plate was washed 10 times with water and was dried. 100 μL of a stain solution (0.05% crystal violet in a 20% methanol solution) was added to each well and allowed to stand for 30 minutes, then the plate was washed 10 times with water and was dried. 100 μL of an extract solution (0.1 N NaH2PO4: 100% ethanol=1:1) was added to each well and mixed, and the mixture was measured at a wavelength of 540 nm using a plate reader (MTP-450 manufactured by Corona Electric Co., Ltd.). The growth inhibition rate was calculated from the following formula, and the concentration (IC50 (μM)) of a test compound inhibiting 50% was determined. Growth inhibition rate (%)={(C−B)−(T−B)}/(C−B)×100
According to the method of Test Example 2, the cell proliferation inhibitory effect on various cancer cell lines as described in Table 21 was evaluated.

A further assay deals with HCC 1806 cells. In words: Cell proliferation inhibitory effect on human breast cancer cell line (crystal violet, 72 hours). Format: cell-based. To be noted: read-out: Cell growth suppression IC50. In short, it runs like this:
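Cells were seeded at 2,000/well in RPMI-1640 with 10% FBS and grown 1 day, then exposed to compound for 72 h at 37° C, 5% CO2. After glutaraldehyde fixation and 0.05% crystal violet staining, extracted dye was read at 540 nm. IC50 (μM) came from growth inhibition relative to untreated and cell-free wells.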

Where [2] appears, read: A673, Ewing's sarcoma, 2000 cell/well, read-out: cell proliferation inhibitory effect, A673.
Setting [3] is: A2780, Ovarian Cancer, 2000 cell/well, read-out: cell proliferation inhibitory effect, A2780.
Setting [4] is: ACHN, Kidney Cancer, 2000 cell/well, read-out: cell proliferation inhibitory effect, ACHN.
The mark [5] stands for this setting: CFPAC-1, Pancreatic Cancer, 2000 cell/well, read-out: cell proliferation inhibitory effect, CFPAC-1.
[6] abbreviates: DU-145, DU145, Prostate Cancer, 5000 cell/well, read-out: cell proliferation inhibitory effect, DU145.
The mark [7] stands for this setting: GB-1, Glioblastoma, 3000 cell/well, read-out: cell proliferation inhibitory effect, GB-1.
Where [8] appears, read: HCT-116, HCT116, Colorectal Cancer, 1000 cell/well, read-out: cell proliferation inhibitory effect, HCT116.
The mark [9] stands for this setting: HLE, Liver Cancer, 3000 cell/well, read-out: cell proliferation inhibitory effect, HLE.
Where [10] appears, read: MSTO-211H, Mesothelioma, 6000 cell/well, read-out: cell proliferation inhibitory effect, MSTO-211H.
Setting [11] is: NCI-H460, Lung Cancer, 1000 cell/well, read-out: cell proliferation inhibitory effect, NCI-H460.
The mark [12] stands for this setting: NCI-H2170, Lung Cancer, 5000 cell/well, read-out: cell proliferation inhibitory effect, NCI-H2170.
The mark [13] stands for this setting: NCI-H2228, Lung Cancer, 5000 cell/well, read-out: cell proliferation inhibitory effect, NCI-H2228.
[14] abbreviates: NUGC-3, Stomach Cancer, 2000 cell/well, read-out: cell proliferation inhibitory effect, NUGC-3.
[15] abbreviates: RPMI7932, Melanoma, 4000 cell/well, read-out: cell proliferation inhibitory effect, RPMI7932.

Where two headings read alike, the source gives them in different places.

For the compound `[2H]C([2H])([2H])C1(O)CCOc2c(S(=O)(=O)N[C@H](c3n[nH]c(=O)o3)[C@H](C)c3c(F)ccc(C)c3C)ccc(Cl)c21` (single isomer, unassigned) [Example 200A], the IC50 in assay [1] (setting [2]) was found to be 180 nM; in assay [1] (setting [3]) it was 130 nM; in assay [1] (setting [4]), 130 nM; in assay [1] (setting [5]) it was 170 nM; in assay [1] (setting [6]), 170 nM; in assay [1] (setting [7]), 370 nM. Further, the IC50 in assay [1] (setting [8]) came out at 220 nM; in assay [1] (setting [9]), 140 nM; in assay [1] (setting [10]), 170 nM; in assay [1] (setting [11]) it was 130 nM; in assay [1] (setting [12]) it was 490 nM; in assay [1] (setting [13]), 500 nM. Also, the figures for the IC50 (in assay [1] (setting [14]); in assay [1] (setting [15]); with HCC 1806 cells) were 270 nM, 430 nM and 50 nM, respectively.
For `Cc1c(Cl)ccc(F)c1[C@@H](C)[C@H](NS(=O)(=O)c1ccc(Cl)c2c1OCCC2(C)O)c1n[nH]c(=O)o1` (single isomer, unassigned) [Example 209A], the IC50 in assay [1] (setting [2]) was found to be 320 nM; in assay [1] (setting [3]), 300 nM; in assay [1] (setting [4]) it was 220 nM; in assay [1] (setting [5]), 330 nM; in assay [1] (setting [6]) it was 310 nM; in assay [1] (setting [7]), 640 nM. The IC50 in assay [1] (setting [8]) was 280 nM; in assay [1] (setting [9]), 260 nM; in assay [1] (setting [10]), 320 nM; in assay [1] (setting [11]), 250 nM; in assay [1] (setting [12]), 570 nM; in assay [1] (setting [13]), 730 nM. The IC50 in assay [1] (setting [14]) stood at 400 nM; in assay [1] (setting [15]) it was 720 nM; in the assay with HCC 1806 cells, 60 nM.
`Cc1c(Br)ccc(F)c1[C@@H](C)[C@H](NS(=O)(=O)c1ccc(Cl)c2c1OCCC2(C)O)c1n[nH]c(=O)o1` (single isomer, unassigned) [Example 222A]: the IC50 in assay [1] (setting [2]) turned out to be 250 nM; in assay [1] (setting [3]), 190 nM; in assay [1] (setting [4]), 170 nM; in assay [1] (setting [5]) it was 230 nM; in assay [1] (setting [6]), 260 nM; in assay [1] (setting [7]), 460 nM. The IC50 is 270 nM in assay [1] (setting [8]); 200 nM in assay [1] (setting [9]); 270 nM in assay [1] (setting [10]); 180 nM in assay [1] (setting [11]); 520 nM in assay [1] (setting [12]); 480 nM in assay [1] (setting [13]). Further, the results for the IC50 (in assay [1] (setting [14]); in assay [1] (setting [15]); in the assay on HCC 1806 cells) were 360 nM, 510 nM and 60 nM, respectively.
On to `[2H]C([2H])([2H])C1(O)CCOc2c(S(=O)(=O)N[C@H](c3n[nH]c(=O)o3)[C@H](C)c3c(F)ccc(Cl)c3C)ccc(Cl)c21` (single isomer, unassigned) [Example 228A], for which the IC50 in assay [1] (setting [2]) was found to be 400 nM; in assay [1] (setting [3]) it was 380 nM; in assay [1] (setting [4]), 320 nM; in assay [1] (setting [5]) it was 360 nM; in assay [1] (setting [6]) it was 340 nM; in assay [1] (setting [7]) it was 850 nM. The IC50 in assay [1] (setting [8]) stood at 380 nM; in assay [1] (setting [9]), 290 nM; in assay [1] (setting [10]) it was 370 nM; in assay [1] (setting [11]) it was 310 nM; in assay [1] (setting [12]), 880 nM; in assay [1] (setting [13]), 740 nM. Besides, the IC50 in assay [1] (setting [14]) came out at 510 nM; in assay [1] (setting [15]) it was 650 nM; in the assay on HCC 1806 cells (Homo sapiens, HCC1806, 72 h) it was 140 nM.
As to `Cc1ccc(F)c([C@@H](C)[C@H](NS(=O)(=O)c2ccc(Cl)c3c2OCCC3O)c2n[nH]c(=O)o2)c1C` (single isomer, unassigned) [Example 235A], the IC50 in assay [1] (setting [2]) came out at 610 nM; in assay [1] (setting [3]), 400 nM; in assay [1] (setting [4]), 380 nM; in assay [1] (setting [5]), 350 nM; in assay [1] (setting [6]), 530 nM; in assay [1] (setting [7]), 1120 nM. The IC50 in assay [1] (setting [8]) worked out at 480 nM; in assay [1] (setting [9]), 420 nM; in assay [1] (setting [10]) it was 390 nM; in assay [1] (setting [11]), 350 nM; in assay [1] (setting [12]), 1100 nM; in assay [1] (setting [13]), 880 nM. Further, the IC50 in assay [1] (setting [14]) was found to be 710 nM; in assay [1] (setting [15]), 1230 nM; in the assay on HCC 1806 cells it was 130 nM.
In the case of `Cc1ccc(F)c([C@@H](C)[C@H](NS(=O)(=O)c2ccc(Br)cc2C(N)=O)c2n[nH]c(=O)o2)c1C` [Example 1, 5-bromo-2-(N-((1 S,2R)-2-(6-fluoro-2,3-dimethylphenyl)-1-(5-oxo-4,5-dihydro-1,3,4-oxadiazol-2-yl)propyl)sulfamoyl)benzamide], the IC50 in assay [1] (setting [2]) came out at 920 nM; in assay [1] (setting [3]) it was 630 nM; in assay [1] (setting [4]) it was 680 nM; in assay [1] (setting [5]), 540 nM; in assay [1] (setting [6]), 730 nM; in assay [1] (setting [7]), 1560 nM. The IC50 is 750 nM in assay [1] (setting [8]); 560 nM in assay [1] (setting [9]); 650 nM in assay [1] (setting [10]); 570 nM in assay [1] (setting [11]); 1410 nM in assay [1] (setting [12]); 1350 nM in assay [1] (setting [13]). Also, the IC50 in assay [1] (setting [14]) is 1120 nM; in assay [1] (setting [15]), 1740 nM; with HCC 1806 cells (Homo sapiens, HCC1806, 72 h), 160 nM.
Turning to `Cc1ccc(F)c([C@@H](C)[C@H](NS(=O)(=O)c2ccc(Cl)cc2C(N)=O)c2n[nH]c(=O)o2)c1C` [Example 5], the IC50 in assay [1] (setting [2]) was 1090 nM; in assay [1] (setting [3]), 830 nM; in assay [1] (setting [4]), 750 nM; in assay [1] (setting [5]), 940 nM; in assay [1] (setting [6]) it was 1040 nM; in assay [1] (setting [7]) it was 1570 nM. Besides, the IC50 in assay [1] (setting [8]) was determined as 910 nM; in assay [1] (setting [9]), 790 nM; in assay [1] (setting [10]), 700 nM; in assay [1] (setting [11]), 730 nM; in assay [1] (setting [12]) it was 1890 nM; in assay [1] (setting [13]), 1270 nM. Also, the IC50 in assay [1] (setting [14]) is 1220 nM; in assay [1] (setting [15]) it was 2670 nM; in the assay on HCC 1806 cells (Homo sapiens, HCC1806, 72 h) it was 200 nM.
As for `CCc1ccc(F)c([C@@H](C)[C@H](NS(=O)(=O)c2ccc(Cl)cc2C(N)=O)c2n[nH]c(=O)o2)c1C` [Example 11, 5-chloro-2-(N-((1S,2R)-2-(3-ethyl-6-fluoro-2-methylphenyl)-1-(5-oxo-4,5-dihydro-1,3,4-oxadiazol-2-yl)propyl)sulfamoyl)benzamide], the IC50 in assay [1] (setting [2]) was 2560 nM; in assay [1] (setting [3]) it was 2080 nM; in assay [1] (setting [4]), 1500 nM; in assay [1] (setting [5]), 1710 nM; in assay [1] (setting [6]) it was 1840 nM; in assay [1] (setting [7]), 5220 nM. For the same compound, the IC50 in assay [1] (setting [8]) was found to be 2300 nM; in assay [1] (setting [9]), 1740 nM; in assay [1] (setting [10]), 1540 nM; in assay [1] (setting [11]), 1500 nM; in assay [1] (setting [12]), 3900 nM; in assay [1] (setting [13]), 3210 nM. For the same compound, the IC50 in assay [1] (setting [14]) came out at 3110 nM; in assay [1] (setting [15]) it was 4740 nM; with HCC 1806 cells (Homo sapiens, HCC1806, 72 h), 640 nM.
Regarding `Cc1c(Cl)ccc(F)c1[C@@H](C)[C@H](NS(=O)(=O)c1ccc(Cl)cc1C(N)=O)c1n[nH]c(=O)o1` [Example 14, 5-chloro-2-(N-((1S,2R)-2-(3 chloro-6-fluoro-2-methylphenyl)-1-(5oxo-4,5-dihydro-1,3,4-oxadiazol-2-yl)propyl)sulfamoyl)benzamide], the IC50 in assay [1] (setting [2]) stood at 1850 nM; in assay [1] (setting [3]), 1710 nM; in assay [1] (setting [4]), 980 nM; in assay [1] (setting [5]), 1420 nM; in assay [1] (setting [6]), 2220 nM; in assay [1] (setting [7]), 4600 nM. Also, the IC50 in assay [1] (setting [8]) worked out at 2200 nM; in assay [1] (setting [9]) it was 1300 nM; in assay [1] (setting [10]), 1580 nM; in assay [1] (setting [11]), 1350 nM; in assay [1] (setting [12]), 4180 nM; in assay [1] (setting [13]), 3530 nM. In addition, the IC50 stood at 2830 nM in assay [1] (setting [14]); 3210 nM in assay [1] (setting [15]); 560 nM with HCC 1806 cells (Homo sapiens, HCC1806, 72 h).
